Reference: patent US11453666B2, “Autotaxin inhibitory compounds” (Cancer Research Technology Limited, priority 2015, dated 2022)
Like-named read-outs stand apart in the source and are kept apart here. Values belong to the molecule of their own block, whether it stands above or below them.

Molecular target: human recombinant ATX (Homo sapiens, UniProt Q13822)
Test: Autotaxin (ATX) activity Quanta Red assay
Assay type: biochemical
Description: The reaction was stopped after 2 hours with a 20 μL addition of Quanta Red Stop solution (1:20 dilution in distilled water). The above-described mixture with DMSO alone was used as a positive control whereas that with DMSO alone without ATX was taken as a negative control.
Fluorescence was determined in a BMG Labtech Pherastar plus plate reader ([…]). Data were analysed using Excel fit software. IC50 values were determined in duplicate.

[1] = read-out: Activity (ATX activity, Quanta Red assay; IC50)
[2] = human recombinant ATX 0.8 μg/mL, 2 hours at room temperature, IC50 determined in duplicate, read-out: Activity (ATX activity, Quanta Red assay; IC50)
[3] = Table 2: additional compounds tested for ATX activity (Quanta Red Assay), read-out: Activity

SMILES: C[C@H](NC(=O)CCc1nc2cccnc2n1Cc1ccc(C(F)(F)F)cc1)c1ccc(Cl)cc1 [Example 12, N-[(S)-1-(4-Chloro-phenyl)-ethyl]-3-[3-(4-trifluoromethyl-benzyl)-3H-imidazo[4,5-b]pyridin-2-yl]-propionamide]
IC50 [2]: 0.002 µM

SMILES: CSc1ccc(CCNC(=O)CCc2nc3cccnc3n2Cc2ccccc2)cc1 [Example 230, 3-(3-Benzyl-3H-imidazo[4,5-b]pyridin-2-yl)-N-[2-(4-methylsulfanyl-phenyl)-ethyl]-propionamide]
IC50 [3]: 0.688 µM

SMILES: CC(C)(C)OC(=O)N1CCC(CNC(=O)CCc2nc3cccnc3n2Cc2ccc(OC(F)(F)F)cc2)CC1 [Example 51, 4-({3-[3-(4-Trifluoromethoxy-benzyl)-3H-imidazo[4,5-b]pyridin-2-yl]-propionylamino}-methyl)-piperidine-1-carboxylic acid tert-butyl ester]
IC50 [1]: 0.022 µM

SMILES: O=C(CCc1nc2cccnc2n1Cc1ccc(OC(F)(F)F)cc1)N[C@@H](Cc1ccc(O)cc1)C(=O)O [Example 200, (S)-3-(4-Hydroxy-phenyl)-2-{3-[3-(4-trifluoromethoxy-benzyl)-3H-imidazo[4,5-b]pyridin-2-yl]-propionylamino}-propionic acid]
IC50 [1]: 0.471 µM

SMILES: Cc1ccc(CNC(=O)CCc2nc3cccnc3n2Cc2ccccc2)cc1 [Example 235, 3-(3-Benzyl-3H-imidazo[4,5-b]pyridin-2-yl)-N-(4-methyl-benzyl)-propionamide]
IC50 [3]: 0.627 µM

SMILES: O=C(CCc1nc2cccnc2n1Cc1ccc(F)c(F)c1)N[C@H](Cc1ccccc1)C(=O)O [Example 198, (R)-2-{3-[3-(3,4-Difluoro-benzyl)-3H-imidazo[4,5-b]pyridin-2-yl]-propionylamino}-3-phenyl-propionic acid]
IC50 [1]: 0.037 µM

SMILES: COc1ccc(CNC(=O)CCc2nc3cccnc3n2Cc2cccc(F)c2)cc1 [Example 110, 3-[3-(3-Fluoro-benzyl)-3H-imidazo[4,5-b]pyridin-2-yl]-N-(4-methoxy-benzyl)-propionamide]
IC50 [1]: 0.262 µM

SMILES: COc1ccc(CNC(=O)CCc2nc3cc(C)cnc3n2Cc2ccc(OC(F)(F)F)cc2)cc1 [Example 53, N-(4-Methoxy-benzyl)-3-[6-methyl-3-(4-trifluoromethoxy-benzyl)-3H-imidazo[4,5-b]pyridin-2-yl]-propionamide]
IC50 [1]: 0.038 µM

SMILES: COc1ccc([C@H](C)NC(=O)NCc2nc3cccnc3n2Cc2ccc(F)cc2)cc1 [Example 159, 1-[3-(4-Fluoro-benzyl)-3H-imidazo[4,5-b]pyridin-2-ylmethyl]-3-[(S)-1-(4-methoxy-phenyl)-ethyl]-urea]
IC50 [1]: 0.042 µM

SMILES: C[C@H](NC(=O)CCc1nc2cccnc2n1Cc1ccc(OCc2ccccc2)cc1)c1ccc(Cl)cc1 [Example 76, 3-[3-(4-Benzyloxy-benzyl)-3H-imidazo[4,5-b]pyridin-2-yl]-N-[(S)-1-(4-chloro-phenyl)-ethyl]-propionamide]
IC50 [1]: 0.5 µM

SMILES: COc1ccc(Cn2c(CCC(=O)N[C@@H](C)c3ccc(F)cc3)nc3cccnc32)cc1 [Example 96, N-[(S)-1-(4-Fluoro-phenyl)-ethyl]-3-[3-(4-methoxy-benzyl)-3H-imidazo[4,5-b]pyridin-2-yl]-propionamide]
IC50 [1]: 0.022 µM

SMILES: O=C(CCc1nc2cccnc2n1Cc1ccc(F)cc1)NC(CO)c1ccc(F)cc1 (stereo not drawn) [Example 47, 3-[3-(4-Fluoro-benzyl)-3H-imidazo[4,5-b]pyridin-2-yl]-N-[1-(4-fluoro-phenyl)-2-hydroxy-ethyl]-propionamide]
IC50 [1]: 0.019 µM

SMILES: C[C@H](NC(=O)NCc1nc2cccnc2n1Cc1ccc(F)cc1)c1ccc(Cl)cc1 [Example 157, 1-[(S)-1-(4-Chloro-phenyl)-ethyl]-3-[3-(4-fluoro-benzyl)-3H-imidazo[4,5-b]pyridin-2-ylmethyl]-urea]
IC50 [2]: 0.01 µM

SMILES: O=C(CCc1nc2cccnc2n1Cc1ccc(F)cc1)N[C@H](CO)c1ccccc1 [Example 64, 3-[3-(4-Fluoro-benzyl)-3H-imidazo[4,5-b]pyridin-2-yl]-N-((S)-2-hydroxy-1-phenyl-ethyl)-propionamide]
IC50 [1]: 0.144 µM

SMILES: CC(C)(C)OC(=O)N1CCC[C@H](CNC(=O)CCc2nc3cccnc3n2Cc2ccc(OC(F)(F)F)cc2)C1 [Example 66, (R)-3-({3-[3-(4-Trifluoromethoxy-benzyl)-3H-imidazo[4,5-b]pyridin-2-yl]-propionylamino}-methyl)-piperidine-1-carboxylic acid tert-butyl ester]
IC50 [1]: 0.162 µM

SMILES: COc1ccc(Cn2c(CCC(=O)NCc3ccccc3)nc3cccnc32)cc1 [Example 236, N-Benzyl-3-[3-(4-methoxy-benzyl)-3H-imidazo[4,5-b]pyridin-2-yl]-propionamide, reference compound]
IC50 (Table 3: commercially available compounds tested for Autotaxin activity (Quanta Red assay), read-out: Activity): 0.406 µM

Second part, the molecule after the results:

IC50 [1]: 0.003 µM
SMILES: O=C(CCc1nc2cccnc2n1Cc1ccc(OC(F)(F)F)cc1)N[C@@H](CS)c1ccccc1 [Example 209, N—((R)-2-mercapto-1-phenyl-ethyl)-3-[3-(4-trifluoromethoxy-benzyl)-3H-imidazo[4,5-b]pyridin-2-yl]-propionamide]

IC50 [1]: 0.013 µM
SMILES: C[C@H](NC(=O)CCc1cc2cccnc2n1Cc1ccc(F)cc1)c1ccc(F)cc1 [Example 140, 3-[1-(4-Fluoro-benzyl)-1H-pyrrolo[2,3-b]pyridin-2-yl]-N-[(S)-1-(4-fluoro-phenyl)-ethyl]-propionamide]

IC50 [1]: 0.014 µM
SMILES: COc1ccc(CNC(=O)CCc2nc3cccc(F)c3n2Cc2ccc(OC)cc2)cc1 [Example 91, 3-[7-Fluoro-1-(4-methoxy-benzyl)-1H-benzoimidazol-2-yl]-N-(4-methoxy-benzyl)-propionamide]

IC50 [1]: 0.004 µM
SMILES: COc1ccc(CNC(=O)CCc2nc3cccnc3n2Cc2ccc(OC(F)(F)F)cc2)cc1F [Example 27, N-(3-Fluoro-4-methoxy-benzyl)-3-[3-(4-trifluoromethoxy-benzyl)-3H-imidazo[4,5-b]pyridin-2-yl]-propionamide]

IC50 [1]: 0.005 µM
SMILES: C[C@H](NC(=O)CCc1nc2cccnc2n1Cc1ccc(F)c(F)c1)c1ccccc1 [Example 86, 3-[3-(3,4-Difluoro-benzyl)-3H-imidazo[4,5-b]pyridin-2-yl]-N-((S)-1-phenyl-ethyl)-propionamide]

IC50 [1]: 0.004 µM
SMILES: O=C(CCc1nc2cccnc2n1Cc1ccc(OC(F)(F)F)cc1)NCc1ccc(OC(F)(F)F)cc1 [Example 22, N-(4-Trifluoromethoxy-benzyl)-3-[3-(4-trifluoromethoxy-benzyl)-3H-imidazo[4,5-b]pyridin-2-yl]-propionamide]

IC50 [1]: 0.002 µM
SMILES: C[C@H](NC(=O)CSc1nc2cccnc2n1Cc1ccc(OC(F)(F)F)cc1)c1ccc(Cl)cc1 [Example 144, N-[(S)-1-(4-Chloro-phenyl)-ethyl]-2-[3-(4-trifluoromethoxy-benzyl)-3H-imidazo[4,5-b]pyridin-2-ylsulfanyl]-acetamide]

IC50 [1]: 0.002 µM
SMILES: O=C(CCc1nc2cccnc2n1Cc1ccc(OC(F)(F)F)cc1)N[C@@H](CO)Cc1ccccc1 [Example 203, N—((R)-1-Hydroxymethyl-2-phenyl-ethyl)-3-[3-(4-trifluoromethoxy-benzyl)-3H-imidazo[4,5-b]pyridin-2-yl]-propionamide]

IC50 [1]: 0.004 µM
SMILES: O=C(CCc1nc2cccnc2n1Cc1ccc(OC(F)(F)F)cc1)N[C@H]1CCc2ccccc21 [Example 25, N-(S)-Indan-1-yl-3-[3-(4-trifluoromethoxy-benzyl)-3H-imidazo[4,5-b]pyridin-2-yl]-propionamide]

IC50 [1]: 0.014 µM
SMILES: CC[C@H](NC(=O)CCc1nc2ccncc2n1Cc1ccc(F)cc1)c1ccccc1 [Example 127, 3-[3-(4-Fluoro-benzyl)-3H-imidazo[4,5-c]pyridin-2-yl]-N-((S)-1-phenyl-propyl)-propionamide]

IC50 [1]: 0.001 µM
SMILES: O=C(CSc1nc2cccnc2n1Cc1ccc(F)cc1)N[C@@H](CO)c1ccccc1 [Example 143, 2-[3-(4-Fluoro-benzyl)-3H-imidazo[4,5-b]pyridin-2-ylsulfanyl]-N-((R)-2-hydroxy-1-phenyl-ethyl)-acetamide]

IC50 [1]: 0.003 µM
SMILES: C[C@H](NC(=O)CCc1nc2cccnc2n1Cc1ccc(OC(F)(F)F)cc1)c1ccc(NC2CCN(C)CC2)cc1 [Example 173, N-{(S)-1-[4-(1-Methyl-piperidin-4-ylamino)-phenyl]-ethyl}-3-[3-(4-trifluoromethoxy-benzyl)-3H-imidazo[4,5-b]pyridin-2-yl]-propionamide]

IC50 [1]: 0.014 µM
SMILES: C[C@H](NC(=O)CCc1cc2cc(F)cnc2n1Cc1ccc(Cl)cc1)c1ccc(F)cc1 [Example 141, 3-[1-(4-Chloro-benzyl)-5-fluoro-1H-pyrrolo[2,3-b]byridin-2-yl]-N-[(S)-1-(4-fluoro-phenyl)-ethyl]-propionamide]

IC50 [1]: 0.016 µM
SMILES: Cc1cnc2c(c1)nc(CCC(=O)N[C@@H](C)c1ccc(N[C@H]3CCNC3)cc1)n2Cc1ccc(OC(F)(F)F)cc1 [Example 189, 3-[6-Methyl-3-(4-trifluoromethoxy-benzyl)-3H-imidazo[4,5-b]pyridin-2-yl]-N-{(S)-1-[4-((S)-pyrrolidin-3-ylamino)-phenyl]-ethyl}-propionamide]

IC50 [1]: 0.006 µM
SMILES: O=C(CCc1nc2cccnc2n1Cc1ccc(F)cc1)NC(CO)c1ccc(OC(F)(F)F)cc1 (stereo not drawn) [Example 33, 3-[3-(4-Fluoro-benzyl)-3H-imidazo[4,5-b]pyridin-2-yl]-N-[2-hydroxy-1-(4-trifluoromethoxy-phenyl)-ethyl]-propionamide]

IC50 [1]: 0.005 µM
SMILES: C[C@H](NC(=O)CCc1nc2cccnc2n1Cc1ccc(Br)cc1)c1ccc(Cl)cc1 [Example 21, 3-[3-(4-Bromo-benzyl)-3H-imidazo[4,5-b]pyridin-2-yl]-N-[(S)-1-(4-chloro-phenyl)-ethyl]-propionamide]

IC50 [1]: 0.005 µM
SMILES: O=C(CCc1nc2cccnc2n1Cc1ccc(OC(F)F)cc1)N[C@H](Cc1ccccc1)C(=O)O [Example 197, (R)-2-{3-[3-(4-Difluoromethoxy-benzyl)-3H-imidazo[4,5-b]pyridin-2-yl]-propionylamino}-3-phenyl-propionic acid]
